Series [1] deals with T1, UGT2B7 (Homo sapiens, UniProt P16662).
T1 sequence (P16662 24-529): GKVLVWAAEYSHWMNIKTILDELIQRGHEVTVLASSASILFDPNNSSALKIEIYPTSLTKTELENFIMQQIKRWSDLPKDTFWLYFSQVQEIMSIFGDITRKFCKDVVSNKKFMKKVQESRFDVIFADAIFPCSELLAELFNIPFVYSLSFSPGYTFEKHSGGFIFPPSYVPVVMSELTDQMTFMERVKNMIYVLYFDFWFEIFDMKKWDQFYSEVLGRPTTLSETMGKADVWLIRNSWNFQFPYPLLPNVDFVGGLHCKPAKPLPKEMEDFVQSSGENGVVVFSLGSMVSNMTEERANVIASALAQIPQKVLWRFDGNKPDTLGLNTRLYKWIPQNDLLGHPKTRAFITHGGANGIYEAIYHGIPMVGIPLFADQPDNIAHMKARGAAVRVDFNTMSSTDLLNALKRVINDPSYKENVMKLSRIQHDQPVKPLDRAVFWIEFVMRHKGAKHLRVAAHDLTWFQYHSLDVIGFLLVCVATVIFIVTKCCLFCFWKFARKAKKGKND
Nature of the series: in vitro. The settings on record: human liver microsomes, probe morphine […] (morphine-6-glucuronide formation). Background: Liver microsomes are a subcellular fraction often used to study metabolism.

The conditions of series [2]: cited from earlier work.
Series [3] addresses T2, UGT2B7 (Homo sapiens, UniProt P16662, Y268H).
T2 sequence (P16662 24-529 Y268H): T1 sequence (P16662 24-529) with Y245H
The series can be described thus: in vitro.

The target in series [4] is T2, UGT2B7. Nature of the series: Inhibition screening of morphine glucuronidation in rUGT2B7-overexpressing HEK293 cell microsomes. The conditions noted are these: rUGT-overexpressing microsomes and HLM.
In series [5] the target is T1, UGT2B7. Nature of the series: IC50 determination and calculated Ki, morphine glucuronidation in HLM. The settings on record: human, human liver microsomes; for IC50: IC50,u, corrected for non-specific binding with fu,inc (11-OH-THC fu,inc as surrogate for 11-COOH-THC and 7-OH-CBD).
The nature of series [6]: Estimated unbound maximum hepatic inlet concentration used for the static model. The settings on record: human, hepatic inlet (unbound). How it is done: (8) [I]h=fu,p×Cmax+Fa ×Fg×Ka×Dose/Qh ×Rb
For the static mechanistic modeling, hepatic blood flow (Qh) and enterocyte blood flow (Qen) were set to 1500 mL/min and 300 mL/min, respectively, and the blood-to-plasma concentration ratio (RB) was set to 0.4 [55].
C௠௔௫ ,௛௘௣௔௧௜௖ ௜௡௟௘௧ ,௨ ൌ f௨,௣ ൈ ቀC௠௔௫ ൅ ிೌ ൈ ி೒ ൈ ௄ೌ ൈ஽௢௦௘ொ೓ ൈ ோ್ቁ, where fu,p (unbound fraction in plasma) wa s set

Series [7] addresses T1, UGT2B7. The series can be described thus: Inhibition screening of morphine glucuronidation in pooled human liver microsomes (HLM). The conditions noted are these: 100 µM cannabinoid.

Molecules are shown by their SMILES. Positions count from the first letter of the chain named.

In the case of `C=C(C)[C@@H]1CCC(C)=C[C@H]1c1c(O)cc(CCCCC)cc1O` [CBD, cannabidiol, reference compound], the IC50 (usually the midpoint of a concentration-inhibition curve) on UGT2B7 [1] was 6.3 ± 2.6 µM; on UGT2B7 [5] (probe morphine […] (morphine-3-glucuronide formation), Morphine-3-Glucuronide formation), 0.42 ± 0.23 µM; on UGT2B7 [5] (probe morphine […] (morphine-6-glucuronide formation), Morphine-6-Glucuronide formation) it was 0.32 ± 0.13 µM. Further, the “Cmax,u” value in series [2] (after consumption) is 130 nM. Moreover, in series [2] (value set for the static model, ref Cox et al., 2019 [45]), the “ka (first-order absorption rate constant)” value is on record as 0.02. In addition, the inhibition (in general, the relative decrease from the control value, in per cent) at 100 µM at UGT2B7 [3] (microsomes of HEK293 cells overexpressing recombinant UGT2B7, probe morphine […] (morphine-3-glucuronide formation)) came out at 99%; on UGT2B7 [3] (microsomes of HEK293 cells overexpressing recombinant UGT2B7, probe morphine […] (morphine-6-glucuronide formation)) it was 98%. Moreover, on UGT2B7 [4], the “inhibition of UGT2B7-mediated morphine metabolism (overall, in words)” value is listed as “strong inhibition”. In addition, the inhibition constant Ki (as a rule, a dissociation constant, usually derived from enzyme kinetics or from competition with a known ligand) at UGT2B7 [5] (probe morphine […] (morphine-3-glucuronide formation), Calculated Ki, Morphine-3-Glucuronide, Ki=IC50/2 assuming competitive inhibition) was 4.11 ± 2.24 µM; on UGT2B7 [5] (probe morphine […] (morphine-6-glucuronide formation), Calculated Ki, Morphine-6-Glucuronide, Ki=IC50/2 assuming competitive inhibition), 3.16 ± 1.32 µM; at UGT2B7 [5] (probe morphine […] (morphine-6-glucuronide formation), Calculated Ki,u, Morphine-6-Glucuronide, Ki corrected with fu,inc), 0.16 ± 0.07 µM. The Cmax (as a rule, the highest concentration seen after dosing) in series [6] (inhaled or intranasal, 19 mg) was 350 nM; in series [6] (po, 70 mg), 90 nM; in series [6] (po, 700 mg), 890 nM; in series [6] (po, 2000 mg) it was 2540 nM. At UGT2B7 [7], the “inhibition of M3G and M6G formation in HLM (in words)” value is reported as “significant inhibition”.

The record behind these values is article PMC10975434 (Pharmaceutics, 2024).
